Experimental data: US12649750B2, “Macrocyclic compounds, compositions, and methods of using thereof” (Sionna Therapeutics Inc., priority 2022, dated 2026)

How the values were obtained:
CFTR = molecular target: T1, CFTR (Homo sapiens, UniProt P13569, DEL508-508); assay: TECC24 AUC fold over DMSO @10 μM, CFTR-mediated transepithelial chloride transport in CF-HBE cells; assay type: cell-based; details: test agent AUC divided by DMSO vehicle AUC, primary CF-HBE cells, ΔF508 homozygous donor, 48 hours incubation
T1 construct: Primary human bronchial epithelial cells from a ΔF508 homozygous CF donor; host or cells: primary human bronchial epithelial cells (CF-HBE), ΔF508 homozygous donor
Method in brief: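 Value is ratio of test-agent to DMSO AUC of equivalent transepithelial Cl− current, integrated from forskolin (10 μM) stimulation to CFTR inhibitor-172 (20 μM) block, with benzamil 10 μM present. CF-HBE (ΔF508/ΔF508) cultures had 48 h compound exposure at 10 μM, 36.5° C before recording.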

NBD1 = molecular target: T2, NBD1 (Homo sapiens, UniProt P13569); assay: Aggregation analysis using differential static light scattering (DSLS), thermal stability of NBD1 (ΔTagg); assay type: binding; details: ΔTagg versus DMSO control, NBD1 0.2 mg/ml
T2 construct: Purified recombinant NBD1 was produced using previously described methods; made in house
Method in brief: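 Purified recombinant NBD1 at 0.2 mg/ml in 50 mM Tris-HCl, 150 mM NaCl, 5 mM MgCl2, 2 mM ATP, 2 mM DTT, pH 7.6, 1% glycerol, with compound, heated 1° C./min to 70° C. under light-scattering monitoring. Tagg taken at curve inflection; ΔTagg is compound Tagg minus mean DMSO-control Tagg, binned A (≤5° C.), B (>5-≤10° C.), C (>10-≤25° C.).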

T1 sequence (P13569 with tags, fused parts or gaps DEL508-508): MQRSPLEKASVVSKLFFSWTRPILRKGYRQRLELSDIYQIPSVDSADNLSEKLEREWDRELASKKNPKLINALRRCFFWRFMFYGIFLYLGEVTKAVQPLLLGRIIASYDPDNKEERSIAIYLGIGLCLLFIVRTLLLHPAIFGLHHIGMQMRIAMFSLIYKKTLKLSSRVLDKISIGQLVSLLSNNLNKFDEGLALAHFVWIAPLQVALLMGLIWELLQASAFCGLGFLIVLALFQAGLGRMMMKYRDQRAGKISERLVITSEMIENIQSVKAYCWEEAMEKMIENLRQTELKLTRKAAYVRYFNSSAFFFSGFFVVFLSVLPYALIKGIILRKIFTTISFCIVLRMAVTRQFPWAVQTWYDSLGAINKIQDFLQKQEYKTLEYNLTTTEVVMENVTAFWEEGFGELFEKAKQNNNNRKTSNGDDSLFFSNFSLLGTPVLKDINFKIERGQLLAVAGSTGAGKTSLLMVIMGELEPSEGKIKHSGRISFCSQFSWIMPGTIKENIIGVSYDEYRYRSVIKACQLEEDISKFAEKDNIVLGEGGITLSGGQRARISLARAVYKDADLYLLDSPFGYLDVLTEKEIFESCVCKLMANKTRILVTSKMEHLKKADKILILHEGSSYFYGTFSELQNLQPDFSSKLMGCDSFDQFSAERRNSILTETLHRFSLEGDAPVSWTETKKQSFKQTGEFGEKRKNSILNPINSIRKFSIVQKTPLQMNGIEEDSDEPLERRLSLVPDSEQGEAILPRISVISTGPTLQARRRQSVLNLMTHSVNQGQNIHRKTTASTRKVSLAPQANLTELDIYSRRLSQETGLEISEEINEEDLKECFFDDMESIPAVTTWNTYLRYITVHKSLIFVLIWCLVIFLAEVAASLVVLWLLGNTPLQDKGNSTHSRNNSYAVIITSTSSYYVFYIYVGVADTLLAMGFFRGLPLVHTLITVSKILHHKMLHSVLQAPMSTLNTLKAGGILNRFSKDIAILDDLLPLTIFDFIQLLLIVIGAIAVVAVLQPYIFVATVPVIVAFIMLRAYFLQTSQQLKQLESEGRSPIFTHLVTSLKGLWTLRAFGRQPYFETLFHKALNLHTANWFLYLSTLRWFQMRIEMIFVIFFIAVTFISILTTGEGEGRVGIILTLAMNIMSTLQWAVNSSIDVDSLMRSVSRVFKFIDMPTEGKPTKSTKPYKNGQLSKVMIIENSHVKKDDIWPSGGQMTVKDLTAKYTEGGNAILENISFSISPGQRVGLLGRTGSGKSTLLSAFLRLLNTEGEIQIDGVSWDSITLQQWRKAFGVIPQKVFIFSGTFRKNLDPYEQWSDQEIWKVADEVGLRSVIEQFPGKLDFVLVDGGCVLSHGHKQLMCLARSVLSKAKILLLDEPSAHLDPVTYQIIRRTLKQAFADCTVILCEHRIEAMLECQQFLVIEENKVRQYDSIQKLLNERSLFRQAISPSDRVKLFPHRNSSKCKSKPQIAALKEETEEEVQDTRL
T2 sequence (P13569 423-646 limits assumed): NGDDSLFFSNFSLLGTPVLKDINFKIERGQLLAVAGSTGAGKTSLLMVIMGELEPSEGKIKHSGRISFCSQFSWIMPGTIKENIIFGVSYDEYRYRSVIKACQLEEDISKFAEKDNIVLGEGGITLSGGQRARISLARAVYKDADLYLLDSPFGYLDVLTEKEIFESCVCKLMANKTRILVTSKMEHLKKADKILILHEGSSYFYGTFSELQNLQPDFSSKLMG

Row | SMILES | TECC (AUC, 10 μM) (CFTR) | DSLS 3D (100 μM ΔT) (NBD1)
1 | CC1(C)CCCC(C)(c2cccc(CCC(=O)O)c2)c2coc(n2)-c2cccc(c2)Oc2c(F)cc3[nH]ccc3c2CCS(=O)(=O)C1 (stereo not drawn) [Compound 51, 3-[3-(22-Fluoro-6,10,10-trimethyl-12,12-dioxo-3,24-dioxa-12λ6-thia-19,30-diazapentacyclo[23.3.1.12,5.015,23.016,20]triaconta-1(29),2(30),4,15,17,20,22,25,27-nonaen-6-yl)phenyl]propanoic Acid] | A (a TECC value less than 12 is marked “A”) | C (a value greater than 10 °C and less than or equal to 25 °C is marked “C”)
2 | CC(CC(=O)O)c1cccc(C2CCCC(C)(C)CS(=O)(=O)CCc3c(c(F)cc4[nH]ccc34)Oc3cccc(c3)-c3ccnn32)c1 (stereo not drawn) [Compound 53, 3-[3-(23-Fluoro-11,11-dimethyl-13,13-dioxo-25-oxa-13lambda6-thia-5,6,20-triazapentacyclo[24.3.1.02,6.016,24.017,21]triaconta-1(30),2,4,16,18,21,23,26,28-nonaen-7-yl)phenyl]butanoic acid] | A (a TECC value less than 12 is marked “A”) | A (an ΔTagg value less than or equal to 5 °C is marked “A”)
3 | CC1(C)CCCC(c2cccc(CCC(=O)O)c2)n2ccc(n2)-c2cc(ccc2F)Oc2c(F)cc3[nH]cnc3c2CCS(=O)(=O)C1 (stereo not drawn) [Compound 57, 3-[3-(22,28-Difluoro-10,10-dimethyl-12,12-dioxo-24-oxa-12λ6-thia-5,17,19,30-tetrazapentacyclo[23.3.1.12,5.015,23.016,20]triaconta-1(29),2(30),3,15,17,20,22,25,27-nonaen-6-yl)phenyl]propanoic Acid] | C (a value between 20 and 80 is marked “C”) | B (a value above 5 °C and less than or equal to 10 °C is marked “B”)
4 | CC1(C)COCC(c2cccc(CCC(=O)O)c2)n2ccc(n2)-c2cc(ccc2F)Oc2c(F)cc3[nH]ccc3c2CCS(=O)(=O)C1 (stereo not drawn) [Compound 58, 3-[3-(22,28-Difluoro-10,10-dimethyl-12,12-dioxo-8,24-dioxa-12λ6-thia-5,19,30-triazapentacyclo[23.3.1.12,5.015,23.016,20]triaconta-1(29),2(30),3,15,17,20,22,25,27-nonaen-6-yl)phenyl]propanoic Acid] | B (a value between 12-20 is marked “B”) | C (a value greater than 10 °C and less than or equal to 25 °C is marked “C”)
5 | CC1(C)COCCC(c2cccc(CCC(=O)O)c2)n2ccc(n2)-c2cc(ccc2F)Oc2c(F)cc3[nH]ccc3c2CS(=O)(=O)C1 (stereo not drawn) [Compound 59, 3-[3-(22,28-Difluoro-11,11-dimethyl-13,13-dioxo-9,24-dioxa-13λ6-thia-5,19,30-triazapentacyclo[23.3.1.12,5.015,23.016,20]triaconta-1(29),2(30),3,15,17,20,22,25,27-nonaen-6-yl)phenyl]propanoic Acid] | C (a value between 20 and 80 is marked “C”) | C (a value greater than 10 °C and less than or equal to 25 °C is marked “C”)
6 | CC1(C)COCCC(c2cccc(CCC(=O)O)c2)n2nccc2-c2cc(ccc2F)Oc2c(F)cc3[nH]ccc3c2CS(=O)(=O)C1 (stereo not drawn) [Compound 60, 3-[3-(23,29-Difluoro-12,12-dimethyl-14,14-dioxo-10,25-dioxa-14λ6-thia-5,6,20-triazapentacyclo[24.3.1.02,6.016,24.017,21]triaconta-1(30),2,4,16,18,21,23,26,28-nonaen-7-yl)phenyl]propanoic Acid] | A (a TECC value less than 12 is marked “A”) | A (an ΔTagg value less than or equal to 5 °C is marked “A”)
7 | Cn1cc2nc1-c1cc(ccc1F)Oc1c(F)cc3[nH]ccc3c1CCS(=O)(=O)CC(C)(C)CCCC2(C)c1cccc(CC(=O)O)c1 (stereo not drawn) [Compound 61, 2-[3-(22,28-Difluoro-3,6,10,10-tetramethyl-12,12-dioxo-24-oxa-12lambda6-thia-3,19,30-triazapentacyclo[23.3.1.12,5.015,23.016,20]triaconta-1(29),2(30),4,15,17,20,22,25,27-nonaen-6-yl)phenyl]acetic Acid] | B (a value between 12-20 is marked “B”) | C (a value greater than 10 °C and less than or equal to 25 °C is marked “C”)
8 | CCn1nc2nc1-c1cc(ccc1F)Oc1c(F)cc3[nH]ccc3c1CCS(=O)(=O)CC(C)(C)CCCC2c1cccc(CCC(=O)O)c1 (stereo not drawn) [Compound 62, 3-[3-(3-Ethyl-22,28-difluoro-10,10-dimethyl-12,12-dioxo-24-oxa-12λ6-thia-3,4,19,30-tetrazapentacyclo[23.3.1.12,5.015,23.016,20]triaconta-1(29),2(30),4,15,17,20,22,25,27-nonaen-6-yl)phenyl]propanoic Acid] | C (a value between 20 and 80 is marked “C”) | C (a value greater than 10 °C and less than or equal to 25 °C is marked “C”)
9 | Cn1nc2nc1-c1cc(ccc1F)Oc1c(F)cc3[nH]ccc3c1CCS(=O)(=O)CC(C)(C)CCCC2(C)c1cccc(CCCO)c1 (stereo not drawn) [Compound 64, 3-[3-(22,28-Difluoro-3,6,10,10-tetramethyl-12,12-dioxo-24-oxa-12λ6-thia-3,4,19,30-tetrazapentacyclo[23.3.1.12,5.015,23.016,20]triaconta-1(29),2(30),4,15,17,20,22,25,27-nonaen-6-yl)phenyl]propan-1-ol] | B (a value between 12-20 is marked “B”) | C (a value greater than 10 °C and less than or equal to 25 °C is marked “C”)
10 | Cn1nc2nc1-c1cc(ccc1F)Oc1c(F)cc3[nH]ccc3c1CCS(=O)(=O)CC(C)(C)COCC2(C)c1cccc(CC(=O)O)c1 (stereo not drawn) [Compound 69, 2-[3-(22,28-Difluoro-3,6,10,10-tetramethyl-12,12-dioxo-8,24-dioxa-12λ6-thia-3,4,19,30-tetrazapentacyclo[23.3.1.12,5.015,23.016,20]triaconta-1(29),2(30),4,15,17,20,22,25,27-nonaen-6-yl)phenyl]acetic Acid] | A (a TECC value less than 12 is marked “A”) | C (a value greater than 10 °C and less than or equal to 25 °C is marked “C”)
11 | CC1(C)CCCC(c2cccc(CCC(=O)O)c2)n2cc(Cl)c(n2)-c2cc(ccc2F)Oc2c(F)cc3[nH]ccc3c2CCS(=O)(=O)C1 (stereo not drawn) [Compound 70, 3-[3-(3-Chloro-22,28-difluoro-10,10-dimethyl-12,12-dioxo-24-oxa-12λ6-thia-5,19,30-triazapentacyclo[23.3.1.12,5.015,23.016,20]triaconta-1(29),2(30),3,15,17,20,22,25,27-nonaen-6-yl)phenyl]propanoic Acid] | A (a TECC value less than 12 is marked “A”) | C (a value greater than 10 °C and less than or equal to 25 °C is marked “C”)
12 | CC1(C)CCCC(c2cccc(CCC(=O)O)c2)n2ncc(Cl)c2-c2cc(ccc2F)Oc2c(F)cc3[nH]ccc3c2CCS(=O)(=O)C1 (stereo not drawn) [Compound 71, 3-[3-(3-Chloro-23,29-difluoro-11,11-dimethyl-13,13-dioxo-25-oxa-13λ6-thia-5,6,20-triazapentacyclo[24.3.1.02,6.016,24.017,21]triaconta-1(30),2,4,16,18,21,23,26,28-nonaen-7-yl)phenyl]propanoic Acid] | A (a TECC value less than 12 is marked “A”) | C (a value greater than 10 °C and less than or equal to 25 °C is marked “C”)
13 | CC(C)n1nc2nc1C(C)(c1cccc(CCC(=O)O)c1)CCCC(C)(C)CS(=O)(=O)CCc1c(c(F)cc3[nH]ccc13)Oc1ccc(F)c-2c1 (stereo not drawn) [Compound 74, 3-[3-(22,28-Difluoro-4-isopropyl-6,10,10-trimethyl-12,12-dioxo-24-oxa-12λ6-thia-3,4,19,30-tetrazapentacyclo-[23.3.1.12,5.015,23.016,20]triaconta-1(29),2,5(30),15,17,20,22,25,27-nonaen-6-yl)phenyl]propanoic acid] | A (a TECC value less than 12 is marked “A”) | C (a value greater than 10 °C and less than or equal to 25 °C is marked “C”)
14 | CC(C)n1nc2nc1-c1cc(ccc1F)Oc1c(F)cc3[nH]ccc3c1CCS(=O)(=O)CC(C)(C)CCCC2(C)c1cccc(CCC(=O)O)c1 (stereo not drawn) [Compound 75, 3-[3-(22,28-difluoro-3-isopropyl-6,10,10-trimethyl-12,12-dioxo-24-oxa-12λ6-thia-3,4,19,30-tetrazapentacyclo-[23.3.1.12,5.015,23.016,20]triaconta-1(29),2(30),4,15,17,20,22,25,27-nonaen-6-yl)phenyl]propanoic Acid] | A (a TECC value less than 12 is marked “A”) | C (a value greater than 10 °C and less than or equal to 25 °C is marked “C”)
15 | Cc1cn2nc1-c1cc(ccc1F)Oc1c(F)cc3[nH]ccc3c1CCS(=O)(=O)CC(C)(C)COCCC2c1cccc(CCC(=O)O)c1 (stereo not drawn) [Compound 76, 3-[3-(23,29-Difluoro-3,11,11-trimethyl-13,13-dioxo-9,25-dioxa-13λ6-thia-5,20,31-triazapentacyclo[24.3.1.12,5.016,24.017,21]hentriaconta-1(30),2(31),3,16,18,21,23,26,28-nonaen-6-yl)phenyl]propanoic Acid] | A (a TECC value less than 12 is marked “A”) | C (a value greater than 10 °C and less than or equal to 25 °C is marked “C”)
